Results as given in US8383641B2, “Aryloxyethylamine compounds suitable for treating disorders that respond to modulation of the dopamine D3 receptor” (Abbott GmbH & Co. KG, priority 2006, dated 2013).
Where a name gives a salt, the structure may show the parent alone.

Columns and labels:
[1] = target: T1, human dopamine D3 receptors (Homo sapiens, UniProt P35462); assay: Dopamine D3 receptor binding, [125I]-iodosulpride displacement; settings: membranes of HEK-293 cells expressing human D3 receptor; 0.1 nM [125I]-iodosulpride
T1 construct: expressed in transfected cells; host or cells: HEK-293
Procedure: (§1) The substance to be tested was either dissolved in methanol/Chremophor® (BASF-AG) or in dimethyl sulfoxide and then diluted with water to the desired concentration.
(§2) Each assay mixture was run in triplicate.
The incubation buffer contained 50 mM tris, 120 mM NaCl, 5 mM KCl, 2 mM CaCl2, 2 mM MgCl2 and 0.1% bovine serum albumin, 10 μM quinolone and 0.1% ascorbic acid (prepared fresh daily). The buffer was adjusted to pH 7.4 with HCl.
(§3) After having been incubated at 25° C. for 60 minutes, the assay mixtures were filtered through a Whatman GF/B glass fiber filter under vacuum using a cell collecting device. The filters were transferred to scintillation viols using a filter transfer system. After 4 ml of Ultima Gold® (Packard) have been added, the samples were shaken for one hour and the radioactivity was then counted in a Beta-Counter (Packard, Tricarb 2000 or 2200CA). The cpm values were converted into dpm using a standard quench series and the program belonging to the instrument.
(§4) The inhibition curves were analyzed by means of iterative nonlinear regression analysis using the Statistical Analysis System (SAS) which is similar to the “LIGAND” program described by Munson and Rodbard.

[2] = target: T2, human dopamine D2L receptors (long isoform) (Homo sapiens, UniProt P14416); assay: Dopamine D2L receptor binding, [125I] iodospiperone displacement; settings: selectivity ratio of receptor binding constants, D2L versus D3
T2 construct: expressed in transfected cells; host or cells: HEK-293
Procedure: as §1, §2
The incubation buffer contained 50 mM tris, 120 mM NaCl, 5 mM KCl, 2 mM CaCl2, 2 mM MgCl2 and 0.1% bovine serum albumin. The buffer was adjusted to pH 7.4 with HCl.
as §3, §4

T2 sequence (P14416 whole entry, canonical isoform): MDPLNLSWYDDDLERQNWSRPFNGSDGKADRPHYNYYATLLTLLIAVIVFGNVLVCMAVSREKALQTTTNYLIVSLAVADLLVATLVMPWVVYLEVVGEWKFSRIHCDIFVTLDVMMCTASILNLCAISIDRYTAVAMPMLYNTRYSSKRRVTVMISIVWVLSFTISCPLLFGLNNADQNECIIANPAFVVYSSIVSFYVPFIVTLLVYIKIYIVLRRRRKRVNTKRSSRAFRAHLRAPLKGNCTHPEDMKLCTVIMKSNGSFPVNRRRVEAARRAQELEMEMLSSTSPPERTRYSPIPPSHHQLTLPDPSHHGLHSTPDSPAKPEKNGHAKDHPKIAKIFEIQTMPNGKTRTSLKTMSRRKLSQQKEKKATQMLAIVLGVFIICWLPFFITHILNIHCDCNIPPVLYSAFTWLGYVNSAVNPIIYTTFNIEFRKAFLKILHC
T1 sequence (P35462 whole entry): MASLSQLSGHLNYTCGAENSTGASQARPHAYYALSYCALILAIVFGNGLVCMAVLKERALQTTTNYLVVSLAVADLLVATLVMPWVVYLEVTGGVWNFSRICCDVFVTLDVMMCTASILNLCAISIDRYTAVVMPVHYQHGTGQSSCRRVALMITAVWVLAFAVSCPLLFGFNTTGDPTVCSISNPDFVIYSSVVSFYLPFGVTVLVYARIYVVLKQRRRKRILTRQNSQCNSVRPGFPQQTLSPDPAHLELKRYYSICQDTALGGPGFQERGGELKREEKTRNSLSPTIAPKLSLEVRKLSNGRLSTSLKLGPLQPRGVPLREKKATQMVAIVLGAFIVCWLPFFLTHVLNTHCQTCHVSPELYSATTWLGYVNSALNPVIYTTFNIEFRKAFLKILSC

Row | Compound | Ki [1] | Ki(D2)*/Ki(D3)* [2]
1 | CCCNCCOc1ccc(NS(=O)(=O)c2ccc(OC(F)F)cc2)c(OC)n1 [Example 5, 4-Difluoromethoxy-N-[2-methoxy-6-(2-propylamino-ethoxy)-pyridin-3-yl]-benzenesulfonamide×HCl] | 0.001 to 0.01 µM | ++ (between 50 and 100)
2 | CCCNCCOc1ccc(NS(=O)(=O)c2ccc(-c3cnco3)cc2)c(C)n1 [Example 36, N-[2-Methyl-6-(2-propylamino-ethoxy)-pyridin-3-yl]-4-oxazol-5-yl-benzenesulfonamide×HCl] | 0.01 to 0.05 µM | ++++ (>150)
3 | COc1nc(OCCN2CCCC2)ccc1NS(=O)(=O)c1ccc(-c2cnco2)cc1 [Example 19, N-[2-Methoxy-6-(2-pyrrolidin-1-yl-ethoxy)-pyridin-3-yl]-4-oxazol-5-yl-benzenesulfonamide] | 0.01 to 0.05 µM | + (between 10 and 50)
4 | CCCNCCOc1ncc(NS(=O)(=O)c2ccc(C(C)C)cc2)c(OC)n1 [Example 20, 4-isopropyl-N-[4-methoxy-2-(2-propylamino-ethoxy)-pyrimidin-5-yl]-benzenesulfonamide] | 0.001 to 0.01 µM | + (between 10 and 50)
5 | CCCNCCOc1ccc(NS(=O)(=O)c2ccc(OCC(F)F)cc2)c(OC)n1 [Example 9, 4-(2,2-Difluoro-ethoxy)-N-[2-methoxy-6-(2-propylamino-ethoxy)-pyridin-3-yl]-benzenesulfonamid×HCl] | 0.001 to 0.01 µM | ++++ (>150)
6 | COc1nc(OC2CCNC2)ccc1NS(=O)(=O)c1ccc(C(C)C)cc1 (stereo not drawn) [Example 13, 4-Isopropyl-N-[2-methoxy-6-(pyrrolidin-3-yloxy)-pyridin-3-yl]-benzenesulfonamide×HCl] | 0.05 to 0.15 µM | + (between 10 and 50)
7 | CCCNCCOc1ccc(NS(=O)(=O)c2ccc(C(C)C)cc2)cn1 [Example 23, 4-Isopropyl-N-[6-(2-propylamino-ethoxy)-pyridin-3-yl]-benzenesulfonamide×HCl] | 0.01 to 0.05 µM | + (between 10 and 50)
8 | CCCNCCOc1ccc(NS(=O)(=O)c2ccc(C(C)C(F)(F)F)cc2)c(OC)n1 (stereo not drawn) [Example 3, N-[2-Methoxy-6-(2-propylamino-ethoxy)-pyridin-3-yl]-4-(2,2,2-trifluoro-1-methylethyl)-benzenesulfonamide×HCl] | 0.001 to 0.01 µM | ++ (between 50 and 100)
9 | CCCNCCOc1ccc(NS(=O)(=O)c2ccc([C@@H](C)CF)cc2)c(OC)n1 [Example 11, 4-((R)-2-Fluoro-1-methyl-ethyl)-N-[2-methoxy-6-(2-propylamino-ethoxy)-pyridin-3-yl]-benzenesulfonamide×HCl] | < 0.001 µM | ++++ (>150)
10 | CCCNCCOc1ccc(NS(=O)(=O)c2ccc(OCC(F)(F)F)cc2)c(OC)n1 [Example 10, N-[2-Methoxy-6-(2-propylamino-ethoxy)-pyridin-3-yl]-4-(2,2,2-trifluoro-ethoxy)-benzenesulfonamide×HCl] | 0.001 to 0.01 µM | ++++ (>150)
11 | CCCNCCOc1ccc(NS(=O)(=O)c2ccc(CCCF)cc2)c(OC)n1 [Example 1, 4-(3-Fluoro-propyl)-N-[2-methoxy-6-(2-propylamino-ethoxy)-pyridin-3-yl]-benzenesulfonamide×HCl] | < 0.001 µM | ++ (between 50 and 100)
12 | CCCN(CCC)CCOc1ccc(NS(=O)(=O)c2ccc(C(C)C)cc2)cn1 [Example 24, N-[6-(2-Dipropylamino-ethoxy)-pyridin-3-yl]-4-isopropyl-benzenesulfonamide×HCl] | 0.01 to 0.05 µM | ++ (between 50 and 100)
13 | COc1nc(OCCN2CCCC2)ccc1NS(=O)(=O)c1ccc([C@@H](C)CF)cc1 [Example 17, 4-((R)-2-Fluoro-1-methyl-ethyl)-N-[2-methoxy-6-(2-pyrrolidin-1-yl-ethoxy)-pyridin-3-yl]-benzenesulfonamide] | 0.001 to 0.01 µM | ++ (between 50 and 100)
14 | CCCNCCOc1ccc(NS(=O)(=O)c2ccc(OCCF)cc2)c(OC)n1 [Example 8, 4-(2-Fluoro-ethoxy)-N-[2-methoxy-6-(2-propylamino-ethoxy)-pyridin-3-yl]-benzenesulfonamide×HCl] | 0.001 to 0.01 µM | ++++ (>150)
15 | Cc1nc(OC[C@@H]2CCCN2)ccc1NS(=O)(=O)c1ccc(C(C)C)cc1 [Example 43, 4-Isopropyl-N-[2-methyl-6-((S)-1-pyrrolidin-2-ylmethoxy)-pyridin-3-yl]-benzenesulfonamide×HCl] | 0.001 to 0.01 µM | +++ (between 100 and 150)
16 | CC(C)c1ccc(S(=O)(=O)Nc2ccc(OCCN(C)C)nc2)cc1 [Example 22, N-[6-(2-Dimethylamino-ethoxy)-pyridin-3-yl]-4-isopropyl-benzenesulfonamide×HCl] | 0.05 to 0.15 µM | –
17 | CCCNCCOc1ncc(NS(=O)(=O)c2ccc(OC(F)(F)F)cc2)c(OC)n1 [Example 21, N-[4-Methoxy-2-(2-propylamino-ethoxy)-pyrimidin-5-yl]-4-trifluoromethoxy-benzenesulfonamide] | 0.05 to 0.15 µM | ++ (between 50 and 100)
18 | CCCNCCOc1ccc(NS(=O)(=O)c2ccc(-c3cnco3)cc2)c(OC)n1 [Example 7, N-[2-Methoxy-6-(2-propylamino-ethoxy)-pyridin-3-yl]-4-oxazol-5-yl-benzenesulfonamide×HCl] | < 0.001 µM | ++++ (>150)
19 | CCCNCCOc1ccc(NS(=O)(=O)c2ccc(OC(F)(F)F)cc2)c(OC)n1.Cl [Example 2, N-[2-Methoxy-6-(2-propylamino-ethoxy)-pyridin-3-yl]-4-trifluoromethoxy-benzenesulfonamide×HCl] | 0.001 to 0.01 µM | + (between 10 and 50)
20 | COc1nc(OCCN2CCCC2)ccc1NS(=O)(=O)c1ccc(CCCF)cc1 [Example 15, 4-(3-Fluoro-propyl)-N-[2-methoxy-6-(2-pyrrolidin-1-yl-ethoxy)-pyridin-3-yl]-benzenesulfonamide] | 0.01 to 0.05 µM | + (between 10 and 50)
21 | COc1nc(OC[C@H]2CCCN2)ccc1NS(=O)(=O)c1ccc(-c2cnco2)cc1 [Example 27, N-[2-Methoxy-6-((R)-1-pyrrolidin-2-ylmethoxy)-pyridin-3-yl]-4-oxazol-5-yl-benzenesulfonamide×HCl] | 0.001 to 0.01 µM | +++ (between 100 and 150)
22 | COc1nc(OCCN2CCCC2)ccc1NS(=O)(=O)c1ccc(C(C)C(F)(F)F)cc1 (stereo not drawn) [Example 18, N-[2-Methoxy-6-(2-pyrrolidin-1-yl-ethoxy)-pyridin-3-yl]-4-(2,2,2-trifluoro-1-methyl-ethyl)-benzenesulfonamide] | 0.001 to 0.01 µM | + (between 10 and 50)
23 | CCCNCCOc1ccc(NS(=O)(=O)c2ccc(CCF)cc2)c(OC)n1 [Example 6, 4-(2-Fluoro-ethyl)-N-[2-methoxy-6-(2-propylamino-ethoxy)-pyridin-3-yl]-benzenesulfonamide×HCl] | 0.001 to 0.01 µM | ++ (between 50 and 100)
24 | CCCNCCOc1ccc(NS(=O)(=O)c2ccc([C@@H](C)CF)cc2)c(C)n1 [Example 34, 4-((R)-2-Fluoro-1-methyl-ethyl)-N-[2-methyl-6-(2-propylamino-ethoxy)-pyridin-3-yl]-benzenesulfonamide×HCl] | 0.001 to 0.01 µM | ++++ (>150)
25 | CCCNCCOc1ccc(NS(=O)(=O)c2ccc(C(C)C)cc2)c(OC)n1 [Example 4, 4-Isopropyl-N-[2-methoxy-6-(2-propylamino-ethoxy)-pyridin-3-yl]-benzenesulfonamide×HCl] | < 0.001 µM | ++ (between 50 and 100)
26 | COc1nc(OCCN2CCCC2)ccc1NS(=O)(=O)c1ccc(C(C)C)cc1 [Example 16, 4-Isopropyl-N-[2-methoxy-6-(2-pyrrolidin-1-yl-ethoxy)-pyridin-3-yl]-benzenesulfonamide×HCl] | 0.001 to 0.01 µM | + (between 10 and 50)
27 | CCCNCCOc1cc(C)c(NS(=O)(=O)c2ccc([C@@H](C)CF)cc2)cn1 [Example 57, 4-((R)-2-Fluoro-1-methyl-ethyl)-N-[4-methyl-6-(2-propylamino-ethoxy)-pyridin-3-yl]-benzenesulfonamide×HCl] | 0.01 to 0.05 µM | ++ (between 50 and 100)
28 | CCCN1CCC(Oc2ccc(NS(=O)(=O)c3ccc(C(C)C)cc3)c(C)n2)C1.O=C(O)/C=C/C(=O)O (stereo not drawn) [Example 61, 4-Isopropyl-N-{2-methyl-6-[(1-propylpyrrolidin-3-yl)oxy]pyridin-3-yl}benzenesulfonamide (2E)-but-2-enedioate] | 0.001 to 0.01 µM | + (between 10 and 50)
29 | CCCNCCOc1ccc(NS(=O)(=O)c2ccc(C(C)C)cc2)c(C)n1 [Example 29, 4-Isopropyl-N-[2-methyl-6-(2-propylamino-ethoxy)-pyridin-3-yl]-benzenesulfonamide×HCl] | < 0.001 µM | ++++ (>150)
